From patent US20250223303A1, “TRICYCLIC BORONIC ACID DERIVATIVE, AND PREPARATION METHOD THEREFOR AND APPLICATION THEREOF” (priority 2021, published 2025)

How the values were obtained:
[1] = tested on: Escherichia coli ARLG 2829; assay: MIC test of compounds in combination with antibiotics, Escherichia coli ARLG 2829; settings: for MIC of biapenem in combination with compound, Escherichia coli ARLG-2829 NDM-5, OXA-1: Biapenem + compound (8 μg/mL); for MIC of meropenem in combination with compound, Escherichia coli ARLG-2829 NDM-5, OXA-1: Meropenem + compound (8 μg/mL)
Description: (§1) Strain preparation: the strains to be tested were streaked from glycerol tube at −80° C. onto Mueller Hinton II Agar plates. The plates were then placed in a 37° C. incubator and cultured for 18-24 hours.
(§2) Media preparation: CAMHB (Mueller Hinton II Broth): 22 g of powder was dissolved in 1 L of purified water and sterilized at 121° C. for 10 min for use. Saline: 8.5 g NaCl was dissolved in 1 L of pure water and sterilized at 121° C. for 30 min for use.
(§3) Preparation of compound and antibiotic stock solutions: the compound and antibiotic were dissolved in DMSO or water to 12.8 mg/mL.
(§4) 2-Fold gradient dilution of antibiotics: 300 μL of CAMHVIB medium was added to columns 2-12 of a 96-deep well plate. In column 1, 24 μL of antibiotic stock solution and 576 µL of CAMHB medium were added and mixed well, with a concentration of 512 μg/mL. 300 µL of antibiotic solution was transferred from the column 1 to the second column and mixed well. The process was repeated until column 11, and the column 12 was a blank control.
(§5) Dilution of combined compounds: the compound was diluted 400-fold to 32 μg/ml with CAMHB medium.
(§6) Working solution aliquoting: 25 μL of antibiotics was aliquoted into the 96-U bottom plate with a pipette, and 25 μL of combined compound was added to each well. If antibiotics were used alone, 25 μL of CAMHB medium was added.
(§7) Inoculum solution preparation: 5-6 single colonies were selected from the plate and suspended in normal saline. The bacterial suspension was adjusted to 0.2 (i.e., 0.5 McFarland turbidity, with a bacterial concentration was about 1 to 2×10^8 CFU/mL) with a turbidity meter. The bacterial suspension was diluted 100-fold with CAMHB medium for later use.
(§8) Inoculation: 50 μL of inoculum solution was transferred to the above 50 μL compound plate with a pipette.
(§9) Culture: The 96-U bottom plate was placed in an incubator at 37° C. for 18 to 20 h.
(§10) After the incubation, bacterial growth was visually observed, and the test plate was photographed and recorded.

[2] = tested on: Klebsiella pneumoniae ARLG 1196; assay: MIC test of compounds in combination with antibiotics, Klebsiella pneumoniae ARLG 1196; settings: for MIC of biapenem in combination with compound, Klebsiella pneumoniae ARLG-1196 CTM-1 group, SHV, NDM, TEM: Biapenem + compound (8 μg/mL); for MIC of meropenem in combination with compound, Klebsiella pneumoniae ARLG-1196 CTM-1 group, SHV, NDM, TEM: Meropenem + compound (8 μg/mL)
Description: as §1, §2, §3, §4, §5, §6, §7, §8, §9, §10

[3] = tested on: Klebsiella pneumoniae ATCC BAA-2470; assay: MIC test of compounds in combination with antibiotics, Klebsiella pneumoniae ATCC BAA-2470; settings: for MIC of biapenem in combination with compound, Klebsiella pneumoniae ATCC BAA-2470 NDM-1: Biapenem + compound (8 μg/mL); for MIC of meropenem in combination with compound, Klebsiella pneumoniae ATCC BAA-2470 NDM-1: Meropenem + compound (8 μg/mL)
Description: as §1, §2, §3, §4, §5, §6, §7, §8, §9, §10

[4] = tested on: Klebsiella pneumoniae ATCC BAA-1705; assay: MIC test of compounds in combination with antibiotics, Klebsiella pneumoniae ATCC BAA-1705; settings: for MIC of biapenem in combination with compound, Klebsiella pneumoniae ATCC BAA-1705 KPC-2: Biapenem + compound (8 μg/mL); for MIC of meropenem in combination with compound, Klebsiella pneumoniae ATCC BAA-1705 KPC-2: Meropenem + compound (8 μg/mL)
Description: as §1, §2, §3, §4, §5, §6, §7, §8, §9, §10

[5] = tested on: Acinetobacter baumannii WX-AB005; assay: MIC test of compounds in combination with antibiotics, Acinetobacter baumannii WX-AB005; settings: for MIC of biapenem in combination with compound, Acinetobacter baumannii WX-AB005: Biapenem + compound (8 μg/mL); for MIC of meropenem in combination with compound, Acinetobacter baumannii WX-AB005: Meropenem + compound (8 μg/mL)
[6] = tested on: Acinetobacter baumannii WX-AB013; assay: MIC test of compounds in combination with antibiotics, Acinetobacter baumannii WX-AB013; settings: for MIC of biapenem in combination with compound, Acinetobacter baumannii WX-AB013: Biapenem + compound (8 μg/mL); for MIC of meropenem in combination with compound, Acinetobacter baumannii WX-AB013: Meropenem + compound (8 μg/mL)
Description: as §4, §5, §6, §7, §8, §9

[7] = tested on: Acinetobacter baumannii ARLG-1791 OXA-23; assay: MIC test of compounds in combination with antibiotics, Acinetobacter baumannii ARLG-1791; settings: for MIC of biapenem in combination with compound, Acinetobacter baumannii ARLG-1791 OXA-23: Biapenem + compound (8 μg/mL); for MIC of meropenem in combination with compound, Acinetobacter baumannii ARLG-1791 OXA-23: Meropenem + compound (8 μg/mL)
Description: as §4, §5, §6, §7, §8, §9

[8] = tested on: Acinetobacter baumannii ARLG-1809 OXA-23; assay: MIC test of compounds in combination with antibiotics, Acinetobacter baumannii ARLG-1809; settings: for MIC of biapenem in combination with compound, Acinetobacter baumannii ARLG-1809 OXA-23: Biapenem + compound (8 μg/mL); for MIC of meropenem in combination with compound, Acinetobacter baumannii ARLG-1809 OXA-23: Meropenem + compound (8 μg/mL)
[9] = tested on: Acinetobacter baumannii ARLG-1852 OXA-23; assay: MIC test of compounds in combination with antibiotics, Acinetobacter baumannii ARLG-1852; settings: for MIC of biapenem in combination with compound, Acinetobacter baumannii ARLG-1852 OXA-23: Biapenem + compound (8 μg/mL); for MIC of meropenem in combination with compound, Acinetobacter baumannii ARLG-1852 OXA-23: Meropenem + compound (8 μg/mL)
Description: as §4, §5, §6, §7, §8, §9

[10] = tested on: Acinetobacter baumannii ARLG-1853 OXA-23; assay: MIC test of compounds in combination with antibiotics, Acinetobacter baumannii ARLG-1853; settings: for MIC of biapenem in combination with compound, Acinetobacter baumannii ARLG-1853 OXA-23: Biapenem + compound (8 μg/mL); for MIC of meropenem in combination with compound, Acinetobacter baumannii ARLG-1853 OXA-23: Meropenem + compound (8 μg/mL)

SMILES: CC(Sc1ccc2c(c1C(=O)O)OB(O)C1CC21)C1CC1 (single isomer, unassigned) [Compound 16-a]
- MIC of biapenem in combination with compound, Escherichia coli ARLG-2829 NDM-5, OXA-1 [1]: 0.25 µg/mL
- MIC of meropenem in combination with compound, Escherichia coli ARLG-2829 NDM-5, OXA-1 [1]: 2 µg/mL
- MIC of biapenem in combination with compound, Klebsiella pneumoniae ARLG-1196 CTM-1 group, SHV, NDM, TEM [2]: 0.5 µg/mL
- MIC of meropenem in combination with compound, Klebsiella pneumoniae ARLG-1196 CTM-1 group, SHV, NDM, TEM [2]: 1 µg/mL
- MIC of biapenem in combination with compound, Klebsiella pneumoniae ATCC BAA-2470 NDM-1 [3]: 1 µg/mL
- MIC of meropenem in combination with compound, Klebsiella pneumoniae ATCC BAA-2470 NDM-1 [3]: 2 µg/mL
- MIC of biapenem in combination with compound, Klebsiella pneumoniae ATCC BAA-1705 KPC-2 [4]: 0.5 µg/mL
- MIC of meropenem in combination with compound, Klebsiella pneumoniae ATCC BAA-1705 KPC-2 [4]: 4 µg/mL
- MIC of biapenem in combination with compound, Acinetobacter baumannii WX-AB005 [5]: 2 µg/mL
- MIC of meropenem in combination with compound, Acinetobacter baumannii WX-AB005 [5]: 8 µg/mL
- MIC of biapenem in combination with compound, Acinetobacter baumannii WX-AB013 [6]: 0.5 µg/mL
- MIC of meropenem in combination with compound, Acinetobacter baumannii WX-AB013 [6]: 4 µg/mL
- MIC of biapenem in combination with compound, Acinetobacter baumannii ARLG-1791 OXA-23 [7]: 0.5 µg/mL
- MIC of meropenem in combination with compound, Acinetobacter baumannii ARLG-1791 OXA-23 [7]: 4 µg/mL
- MIC of biapenem in combination with compound, Acinetobacter baumannii ARLG-1809 OXA-23 [8]: 1 µg/mL
- MIC of meropenem in combination with compound, Acinetobacter baumannii ARLG-1809 OXA-23 [8]: 2 µg/mL
- MIC of biapenem in combination with compound, Acinetobacter baumannii ARLG-1852 OXA-23 [9]: 0.25 µg/mL
- MIC of meropenem in combination with compound, Acinetobacter baumannii ARLG-1852 OXA-23 [9]: 2 µg/mL
- MIC of biapenem in combination with compound, Acinetobacter baumannii ARLG-1853 OXA-23 [10]: 0.5 µg/mL
- MIC of meropenem in combination with compound, Acinetobacter baumannii ARLG-1853 OXA-23 [10]: 2 µg/mL

SMILES: C[C@H](Sc1ccc2c(c1C(=O)O)OB(O)[C@@H]1C[C@H]21)[C@@H]1CCCO1 [Compound 18-a]
- MIC of biapenem in combination with compound, Escherichia coli ARLG-2829 NDM-5, OXA-1 [1]: ≤0.125 µg/mL
- MIC of meropenem in combination with compound, Escherichia coli ARLG-2829 NDM-5, OXA-1 [1]: 2 µg/mL
- MIC of biapenem in combination with compound, Klebsiella pneumoniae ARLG-1196 CTM-1 group, SHV, NDM, TEM [2]: ≤0.125 µg/mL
- MIC of meropenem in combination with compound, Klebsiella pneumoniae ARLG-1196 CTM-1 group, SHV, NDM, TEM [2]: 2 µg/mL
- MIC of biapenem in combination with compound, Klebsiella pneumoniae ATCC BAA-2470 NDM-1 [3]: 0.5 µg/mL
- MIC of meropenem in combination with compound, Klebsiella pneumoniae ATCC BAA-2470 NDM-1 [3]: 8 µg/mL
- MIC of biapenem in combination with compound, Klebsiella pneumoniae ATCC BAA-1705 KPC-2 [4]: 0.5 µg/mL
- MIC of meropenem in combination with compound, Klebsiella pneumoniae ATCC BAA-1705 KPC-2 [4]: 1 µg/mL
- MIC of biapenem in combination with compound, Acinetobacter baumannii WX-AB005 [5]: 4 µg/mL
- MIC of meropenem in combination with compound, Acinetobacter baumannii WX-AB005 [5]: 8 µg/mL
- MIC of biapenem in combination with compound, Acinetobacter baumannii WX-AB013 [6]: 0.5 µg/mL
- MIC of meropenem in combination with compound, Acinetobacter baumannii WX-AB013 [6]: 4 µg/mL
- MIC of biapenem in combination with compound, Acinetobacter baumannii ARLG-1791 OXA-23 [7]: 0.5 µg/mL
- MIC of meropenem in combination with compound, Acinetobacter baumannii ARLG-1791 OXA-23 [7]: 8 µg/mL
- MIC of biapenem in combination with compound, Acinetobacter baumannii ARLG-1809 OXA-23 [8]: 2 µg/mL
- MIC of meropenem in combination with compound, Acinetobacter baumannii ARLG-1809 OXA-23 [8]: 4 µg/mL
- MIC of biapenem in combination with compound, Acinetobacter baumannii ARLG-1852 OXA-23 [9]: 0.5 µg/mL
- MIC of meropenem in combination with compound, Acinetobacter baumannii ARLG-1852 OXA-23 [9]: 2 µg/mL
- MIC of biapenem in combination with compound, Acinetobacter baumannii ARLG-1853 OXA-23 [10]: 0.5 µg/mL
- MIC of meropenem in combination with compound, Acinetobacter baumannii ARLG-1853 OXA-23 [10]: 2 µg/mL

SMILES: NC1COCC1Sc1ccc2c(c1C(=O)O)OB(O)C1CC21 (single isomer, unassigned) [Compound 11_P1]
- MIC of biapenem in combination with compound, Escherichia coli ARLG-2829 NDM-5, OXA-1 [1]: 0.25 µg/mL
- MIC of meropenem in combination with compound, Escherichia coli ARLG-2829 NDM-5, OXA-1 [1]: ≤0.125 µg/mL
- MIC of biapenem in combination with compound, Klebsiella pneumoniae ARLG-1196 CTM-1 group, SHV, NDM, TEM [2]: 0.25 µg/mL
- MIC of meropenem in combination with compound, Klebsiella pneumoniae ARLG-1196 CTM-1 group, SHV, NDM, TEM [2]: 0.5 µg/mL
- MIC of biapenem in combination with compound, Klebsiella pneumoniae ATCC BAA-2470 NDM-1 [3]: 0.25 µg/mL
- MIC of meropenem in combination with compound, Klebsiella pneumoniae ATCC BAA-2470 NDM-1 [3]: ≤0.125 µg/mL
- MIC of biapenem in combination with compound, Klebsiella pneumoniae ATCC BAA-1705 KPC-2 [4]: ≤0.125 µg/mL
- MIC of meropenem in combination with compound, Klebsiella pneumoniae ATCC BAA-1705 KPC-2 [4]: ≤0.125 µg/mL
- MIC of biapenem in combination with compound, Acinetobacter baumannii WX-AB005 [5]: 1 µg/mL
- MIC of meropenem in combination with compound, Acinetobacter baumannii WX-AB005 [5]: 4 µg/mL
- MIC of biapenem in combination with compound, Acinetobacter baumannii WX-AB013 [6]: 0.5 µg/mL
- MIC of meropenem in combination with compound, Acinetobacter baumannii WX-AB013 [6]: 2 µg/mL
- MIC of biapenem in combination with compound, Acinetobacter baumannii ARLG-1791 OXA-23 [7]: 0.25 µg/mL
- MIC of meropenem in combination with compound, Acinetobacter baumannii ARLG-1791 OXA-23 [7]: 2 µg/mL
- MIC of biapenem in combination with compound, Acinetobacter baumannii ARLG-1809 OXA-23 [8]: 0.5 µg/mL
- MIC of meropenem in combination with compound, Acinetobacter baumannii ARLG-1809 OXA-23 [8]: 2 µg/mL
- MIC of biapenem in combination with compound, Acinetobacter baumannii ARLG-1852 OXA-23 [9]: 0.25 µg/mL
- MIC of meropenem in combination with compound, Acinetobacter baumannii ARLG-1852 OXA-23 [9]: 1 µg/mL
- MIC of biapenem in combination with compound, Acinetobacter baumannii ARLG-1853 OXA-23 [10]: ≤0.125 µg/mL
- MIC of meropenem in combination with compound, Acinetobacter baumannii ARLG-1853 OXA-23 [10]: 2 µg/mL

SMILES: CC(Sc1ccc2c(c1C(=O)O)OB(O)C1CC21)C1CC1 (single isomer, unassigned) [Compound 16-d]
- MIC of biapenem in combination with compound, Escherichia coli ARLG-2829 NDM-5, OXA-1 [1]: ≤0.125 µg/mL
- MIC of meropenem in combination with compound, Escherichia coli ARLG-2829 NDM-5, OXA-1 [1]: 0.5 µg/mL
- MIC of biapenem in combination with compound, Klebsiella pneumoniae ARLG-1196 CTM-1 group, SHV, NDM, TEM [2]: ≤0.125 µg/mL
- MIC of meropenem in combination with compound, Klebsiella pneumoniae ARLG-1196 CTM-1 group, SHV, NDM, TEM [2]: 0.25 µg/mL
- MIC of biapenem in combination with compound, Klebsiella pneumoniae ATCC BAA-2470 NDM-1 [3]: 0.25 µg/mL
- MIC of meropenem in combination with compound, Klebsiella pneumoniae ATCC BAA-2470 NDM-1 [3]: 0.5 µg/mL
- MIC of biapenem in combination with compound, Klebsiella pneumoniae ATCC BAA-1705 KPC-2 [4]: 0.5 µg/mL
- MIC of meropenem in combination with compound, Klebsiella pneumoniae ATCC BAA-1705 KPC-2 [4]: 2 µg/mL
- MIC of biapenem in combination with compound, Acinetobacter baumannii WX-AB005 [5]: 2 µg/mL
- MIC of meropenem in combination with compound, Acinetobacter baumannii WX-AB005 [5]: 8 µg/mL
- MIC of biapenem in combination with compound, Acinetobacter baumannii WX-AB013 [6]: 0.5 µg/mL
- MIC of meropenem in combination with compound, Acinetobacter baumannii WX-AB013 [6]: 4 µg/mL
- MIC of biapenem in combination with compound, Acinetobacter baumannii ARLG-1791 OXA-23 [7]: 0.5 µg/mL
- MIC of meropenem in combination with compound, Acinetobacter baumannii ARLG-1791 OXA-23 [7]: 8 µg/mL
- MIC of biapenem in combination with compound, Acinetobacter baumannii ARLG-1809 OXA-23 [8]: 0.5 µg/mL
- MIC of meropenem in combination with compound, Acinetobacter baumannii ARLG-1809 OXA-23 [8]: 4 µg/mL
- MIC of biapenem in combination with compound, Acinetobacter baumannii ARLG-1852 OXA-23 [9]: 0.25 µg/mL
- MIC of meropenem in combination with compound, Acinetobacter baumannii ARLG-1852 OXA-23 [9]: 2 µg/mL
- MIC of biapenem in combination with compound, Acinetobacter baumannii ARLG-1853 OXA-23 [10]: 0.25 µg/mL
- MIC of meropenem in combination with compound, Acinetobacter baumannii ARLG-1853 OXA-23 [10]: 2 µg/mL
